We go through one compound from patent publication US6403616B1, “Chemical process and pharmaceutical formulation” (AstraZeneca AB, priority 1998, dated 2002).

The nature of this data set: pKa of omeprazole magnesium. The data set is classed as physicochemical. The text has this: Preferably, a suspension of omeprazole magnesium should have a pH of 9.5 or above in a 10% (w/w) suspension of the bulk substance.

As to `COc1ccc2[n-]c([S+]([O-])Cc3ncc(C)c(OC)c3C)nc2c1.COc1ccc2[n-]c([S+]([O-])Cc3ncc(C)c(OC)c3C)nc2c1.[Mg+2]` (stereo not shown) [omeprazole magnesium], the pKa – broadly, the pH at which an ionisable group is half protonated – amounted to 8.8.
